According to patent US12162872B2, “Cycloalkylurea derivative” (Sumitomo Pharma Co., Ltd., priority 2019, dated 2024):

Target: T1, Human orexin receptor type 2 (Homo sapiens, UniProt O43614)
T1 construct: expressed in transfected cells; host or cells: CHO cells (transient expression)
T1 sequence (O43614 1-444): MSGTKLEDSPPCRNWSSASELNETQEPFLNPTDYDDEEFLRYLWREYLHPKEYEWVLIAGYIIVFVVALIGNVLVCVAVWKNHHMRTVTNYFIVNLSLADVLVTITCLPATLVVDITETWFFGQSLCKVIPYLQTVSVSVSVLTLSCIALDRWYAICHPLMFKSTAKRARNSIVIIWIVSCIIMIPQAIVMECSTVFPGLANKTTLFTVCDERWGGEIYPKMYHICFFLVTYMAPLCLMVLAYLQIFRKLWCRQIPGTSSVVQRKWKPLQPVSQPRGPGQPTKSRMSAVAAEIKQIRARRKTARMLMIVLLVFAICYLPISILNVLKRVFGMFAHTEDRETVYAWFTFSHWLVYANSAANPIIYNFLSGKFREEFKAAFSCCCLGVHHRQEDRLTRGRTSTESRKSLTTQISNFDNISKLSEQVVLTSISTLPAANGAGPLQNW
Test: Test 2: Evaluation of agonist activity for orexin receptor type 2 (aequorin luminescence, intracellular calcium mobilization in CHO cells)
Format: cell-based
Settings: relative percentage of luminescence for the luminescence (100%) of Orexin A (100 pM); CHO cells transiently expressing human orexin receptor type 2 and apoaequorin; Orexin A Lot. 671009
Procedure: Test 2: Evaluation of Agonist Activity for Orexin Receptor Type 2
Human orexin receptor type 2 and apoaequorin were transiently expressed in CHO cells, and the agonist activity was evaluated based on intracellular calcium mobilization with ligand stimulation. The CHO cells transiently-expressed human orexin receptor type 2 and apoaequorin were seeded on a 384-well plate by 2,000 cells/well, and then incubated for 16-22 hours. After the plate was returned to room temperature, Coelenterazine hcp (final concentration: 1 μM) was added to the plate, and the plate was allowed to stand at room temperature for 2 hours. And then, Orexin A (PEPTIDE INSTITUTE, INC., Lot. 671009) or each test compound was added to the plate, and the luminescence of the cells was measured with FDSS7000 (Hamamatsu Photonics K.K.), wherein Orexin A and each test compound were dissolved in DMSO (final concentration: 0.1%), and diluted with a buffer (Hanks, 20 mM HEPES, 0.1% BSA). The agonist activity of each test compound for orexin receptor type 2 was calculated as relative percentage of luminescence for the luminescence (100%) of Orexin A (100 pM).

| SMILES | agonist activity (%) |
| --- | --- |
| CC(C)N1C[C@H]2CC[C@@H](C1)[C@H]2O[C@H]1CCCC(F)(F)[C@@H]1NC(=O)N1CCC(C)(c2noc([C@@H]3C[C@@H]3F)n2)CC1 [Example 100, N-[(1R,6S)-2,2-difluoro-6-{[(1R,5S,8R)-3-(propan-2-yl)-3-azabicyclo[3.2.1]octan-8-yl]oxy}cyclohexyl]-4-{5-[(1S,2S)-2-fluorocyclopropyl]-1,2,4-oxadiazol-3-yl}-4-methylpiperidine-1-carboxamide] | 340 |
| CC(C)OC1CCN([C@H]2CCCC(F)(F)[C@@H]2NC(=O)N2CCC(C)(c3noc([C@@H]4C[C@@H]4F)n3)CC2)CC1 [Example 101, N-[(1R,6S)-2,2-difluoro-6-{4-[(propan-2-yl)oxy]piperidin-1-yl}cyclohexyl]-4-{5-[(1S,2S)-2-fluorocyclopropyl]-1,2,4-oxadiazol-3-yl}-4-methylpiperidine-1-carboxamide] | 326 |
| CC(C)N1CC[C@H](O[C@H]2CCCC(F)(F)[C@@H]2NC(=O)N2CCC(C)(c3noc(C4CCC4)n3)CC2)C1 [Example 102, 4-(5-cyclobutyl-1,2,4-oxadiazol-3-yl)-N-[(1R,6S)-2,2-difluoro-6-{[(3S)-1-(propan-2-yl)pyrrolidin-3-yl]oxy}cyclohexyl]-4-methylpiperidine-1-carboxamide] | 374 |
| CCC1(c2noc([C@@H]3C[C@@H]3F)n2)CCN(C(=O)N[C@@H]2[C@@H](O[C@H]3CCN(C(C)C)C3)CCCC2(F)F)CC1 [Example 103, N-[(1R,6S)-2,2-difluoro-6-{[(3S)-1-(propan-2-yl)pyrrolidin-3-yl]oxy}cyclohexyl]-4-ethyl-4-{5-[(1S,2S)-2-fluorocyclopropyl]-1,2,4-oxadiazol-3-yl}piperidine-1-carboxamide] | 369 |
| CC(C)N1C[C@H]2CC[C@@H](C1)[C@@H]2O[C@H]1CCCC(F)(F)[C@@H]1NC(=O)N1CCC(C)(c2noc([C@@H]3C[C@@H]3F)n2)CC1 [Example 104, N-[(1R,6S)-2,2-difluoro-6-{[(1R,5S,8S)-3-(propan-2-yl)-3-azabicyclo[3.2.1]octan-8-yl]oxy}cyclohexyl]-4-{5-[(1S,2S)-2-fluorocyclopropyl]-1,2,4-oxadiazol-3-yl}-4-methylpiperidine-1-carboxamide] | 289 |
| CC(C)N1[C@@H]2CC[C@H]1C[C@@H](O[C@H]1CCCC(F)(F)[C@@H]1NC(=O)N1CCC(C)(c3noc([C@@H]4C[C@@H]4F)n3)CC1)C2 [Example 105, N-[(1R,6S)-2,2-difluoro-6-{[(1R,3R,5S)-8-(propan-2-yl)-8-azabicyclo[3.2.1]octan-3-yl]oxy}cyclohexyl]-4-{5-[(1S,2S)-2-fluorocyclopropyl]-1,2,4-oxadiazol-3-yl}-4-methylpiperidine-1-carboxamide] | 359 |
| CC(C)CN1CC[C@H](O[C@H]2CCCC(F)(F)[C@@H]2NC(=O)N2CCC(C)(c3noc([C@@H]4C[C@@H]4F)n3)CC2)C1 [Example 107, N-[(1R,6S)-2,2-difluoro-6-{[(3S)-1-(2-methylpropyl)pyrrolidin-3-yl]oxy}cyclohexyl]-4-{5-[(1S,2S)-2-fluorocyclopropyl]-1,2,4-oxadiazol-3-yl}-4-methylpiperidine-1-carboxamide] | 363 |
| CO[C@@H]1CN(C(C)C)C[C@H]1O[C@H]1CCCC(F)(F)[C@@H]1NC(=O)N1CCC(C)(c2noc([C@@H]3C[C@@H]3F)n2)CC1 [Example 108, N-[(1R,6S)-2,2-difluoro-6-{[(3R,4R)-4-methoxy-1-(propan-2-yl)pyrrolidin-3-yl]oxy}cyclohexyl]-4-{5-[(1S,2S)-2-fluorocyclopropyl]-1,2,4-oxadiazol-3-yl}-4-methylpiperidine-1-carboxamide] | 292 |
| CC(C)CN1CC[C@H](O[C@H]2CCCC(F)(F)[C@@H]2NC(=O)N2CCC(C)(c3noc(C4CC4)n3)CC2)C1 [Example 116, 4-(5-cyclopropyl-1,2,4-oxadiazol-3-yl)-N-[(1R,6S)-2,2-difluoro-6-{[(3S)-1-(2-methylpropyl)pyrrolidin-3-yl]oxy}cyclohexyl]-4-methylpiperidine-1-carboxamide] | 488 |
| CC(C)N1CCN(C[C@H]2CCCC(F)(F)[C@@H]2NC(=O)N2CCC(C)(c3noc([C@@H]4C[C@@H]4F)n3)CC2)CC1 [Example 117, N-[(1R,6R)-2,2-difluoro-6-{[4-(propan-2-yl)piperazin-1-yl]methyl}cyclohexyl]-4-{5-[(1S,2S)-2-fluorocyclopropyl]-1,2,4-oxadiazol-3-yl}-4-methylpiperidine-1-carboxamide] | 465 |
| CC1(c2noc([C@@H]3C[C@@H]3F)n2)CCN(C(=O)N[C@@H]2[C@@H](O[C@H]3CCN(CC4CC4)C3)CCCC2(F)F)CC1 [Example 118, N-[(1R,6S)-6-{[(3S)-1-(cyclopropylmethyl)pyrrolidin-3-yl]oxy}-2,2-difluorocyclohexyl]-4-{5-[(1S,2S)-2-fluorocyclopropyl]-1,2,4-oxadiazol-3-yl}-4-methylpiperidine-1-carboxamide] | 524 |

Now from value to compound:

| agonist activity (%) | SMILES |
| --- | --- |
| 220 | CC(C)N1C[C@@H]2[C@H](C1)[C@H]2O[C@H]1CCCC(F)(F)[C@@H]1NC(=O)N1CCC(C)(c2noc([C@@H]3C[C@@H]3F)n2)CC1 [Example 106, N-[(1R,6S)-2,2-difluoro-6-{[(1R,5S,6S)-3-(propan-2-yl)-3-azabicyclo[3.1.0]hexan-6-yl]oxy}cyclohexyl]-4-{5-[(1S,2S)-2-fluorocyclopropyl]-1,2,4-oxadiazol-3-yl}-4-methylpiperidine-1-carboxamide] |
| 359 | CC(C)N1CCC(C)(O[C@H]2CCCC(F)(F)[C@@H]2NC(=O)N2CCC(C)(c3noc([C@@H]4C[C@@H]4F)n3)CC2)CC1 [Example 109, N-[(1R,6S)-2,2-difluoro-6-{[4-methyl-1-(propan-2-yl)piperidin-4-yl]oxy}cyclohexyl]-4-{5-[(1S,2S)-2-fluorocyclopropyl]-1,2,4-oxadiazol-3-yl}-4-methylpiperidine-1-carboxamide] |
| 380 | CC(C)N1CCN([C@H]2CCCC(F)(F)[C@@H]2NC(=O)N2CCC(C)(c3noc([C@@H]4C[C@@H]4F)n3)CC2)[C@@H](C)C1 [Example 110, N-{(1R,6S)-2,2-difluoro-6-[(2S)-2-methyl-4-(propan-2-yl)piperazin-1-yl]cyclohexyl}-4-{5-[(1S,2S)-2-fluorocyclopropyl]-1,2,4-oxadiazol-3-yl}-4-methylpiperidine-1-carboxamide] |
| 382 | CC(C)N1CCN([C@H]2CCCC(F)(F)[C@@H]2NC(=O)N2CCC(C)(c3noc([C@@H]4C[C@@H]4F)n3)CC2)[C@H](C)C1 [Example 111, N-{(1R,6S)-2,2-difluoro-6-[(2R)-2-methyl-4-(propan-2-yl)piperazin-1-yl]cyclohexyl}-4-{5-[(1S,2S)-2-fluorocyclopropyl]-1,2,4-oxadiazol-3-yl}-4-methylpiperidine-1-carboxamide] |
| 376 | CC(C)N(C)[C@@H]1CCN([C@H]2CCCC(F)(F)[C@@H]2NC(=O)N2CCC(C)(c3noc([C@@H]4C[C@@H]4F)n3)CC2)C1 [Example 112, N-[(1R,6S)-2,2-difluoro-6-{(3R)-3-[methyl(propan-2-yl)amino]pyrrolidin-1-yl}cyclohexyl]-4-{5-[(1S,2S)-2-fluorocyclopropyl]-1,2,4-oxadiazol-3-yl}-4-methylpiperidine-1-carboxamide] |
| 374 | CC(C)N1CC[C@@H](N(C)[C@H]2CCCC(F)(F)[C@@H]2NC(=O)N2CCC(C)(c3noc([C@@H]4C[C@@H]4F)n3)CC2)C1 [Example 113, N-[(1R,6S)-2,2-difluoro-6-{methyl[(3R)-1-(propan-2-yl)pyrrolidin-3-yl]amino}cyclohexyl]-4-{5-[(1S,2S)-2-fluorocyclopropyl]-1,2,4-oxadiazol-3-yl}-4-methylpiperidine-1-carboxamide] |
| 438 | CC(C)N(C)C1CCN([C@H]2CCCC(F)(F)[C@@H]2NC(=O)N2CCC(C)(c3noc([C@@H]4C[C@@H]4F)n3)CC2)CC1 [Example 114, N-[(1R,6S)-2,2-difluoro-6-{4-[methyl(propan-2-yl)amino]piperidin-1-yl}cyclohexyl]-4-{5-[(1S,2S)-2-fluorocyclopropyl]-1,2,4-oxadiazol-3-yl}-4-methylpiperidine-1-carboxamide] |
| 403 | CN(C1CC1)[C@H]1CCN([C@H]2CCCC(F)(F)[C@@H]2NC(=O)N2CCC(C)(c3noc([C@@H]4C[C@@H]4F)n3)CC2)C1 [Example 115, N-[(1R,6S)-6-{(3S)-3-[cyclopropyl(methyl)amino]pyrrolidin-1-yl}-2,2-difluorocyclohexyl]-4-{5-[(1S,2S)-2-fluorocyclopropyl]-1,2,4-oxadiazol-3-yl}-4-methylpiperidine-1-carboxamide] |
